Holding throughout (type): functional
In test [1] the test system is Clostridioides difficile. Description: Antimicrobial activity against daptomycin-resistant Clostridium difficile NAP1 incubated anaerobically at 37 degC for 48 hrs by agar dilution method. The following applies: NAP1, 48 h. (In agar dilution the substance is mixed into plates at graded concentrations.)
Test [2] concerns Staphylococcus aureus. Description: Antimicrobial activity against daptomycin-susceptible Staphylococcus aureus ATCC 29213 incubated anaerobically at 37 degC for 48 hrs by agar dilution method. The following applies: ATCC 29213, 48 h.
Test [3] has as its system Enterococcus faecalis. In words: Antimicrobial activity against daptomycin-resistant Enterococcus faecalis ATCC 49452 incubated anaerobically at 37 degC for 48 hrs by agar dilution method. The following applies: ATCC 49452, 48 h.
Test [4] relates to Enterococcus faecium. In words: Antimicrobial activity against daptomycin-resistant Enterococcus faecium ATCC 6569 incubated anaerobically at 37 degC for 48 hrs by agar dilution method. The following applies: ATCC 6569, 48 h.

Values after ≈ are worked out from the molar mass of the structure shown.

On to `CCCCCCOc1ccc(-c2ccc(C(=O)N[C@@H](Cc3c[nH]c4ccccc34)C(=O)N[C@@H](CC(N)=O)C(=O)N[C@@H](CC(=O)O)C(=O)N[C@@H]3C(=O)NCC(=O)N[C@@H](CCCN)C(=O)N[C@H](CC(=O)O)C(=O)N[C@H](C)C(=O)N[C@@H](CC(=O)O)C(=O)NCC(=O)N[C@H](CO)C(=O)N[C@@H]([C@@H](C)CC(=O)O)C(=O)N[C@@H](CC(=O)c4ccccc4N)C(=O)O[C@@H]3C)cc2)cc1`, for which the MIC (in general, the lowest concentration that inhibits growth of the organism) was found to be 2 µg/mL (≈ 1.14 µM) in test [1], 0.5 µg/mL (≈ 0.286 µM) in test [2], 2 µg/mL (≈ 1.14 µM) in test [3] and 1 µg/mL (≈ 0.572 µM) in test [4].
In the case of `C[C@H]1NC(=O)C(CC(=O)O)NC(=O)[C@H](CCCN)NC(=O)CNC(=O)[C@@H](NC(=O)[C@H](CC(=O)O)NC(=O)[C@H](CC(N)=O)NC(=O)[C@H](Cc2c[nH]c3ccccc23)NC(=O)CCCCCc2ccccc2)[C@@H](C)OC(=O)[C@H](CC(=O)c2ccccc2N)NC(=O)[C@H]([C@@H](C)CC(=O)O)NC(=O)[C@@H](CO)NC(=O)CNC(=O)[C@H](CC(=O)O)NC1=O` (single isomer, unassigned), the MIC is 16 µg/mL (≈ 9.75 µM) in test [1], 16 µg/mL (≈ 9.75 µM) in test [2], above 32 µg/mL in test [3] and above 32 µg/mL in test [4].
On to `CCCCCCCCCCC(=O)N[C@@H](Cc1c[nH]c2ccccc12)C(=O)N[C@@H](CC(N)=O)C(=O)N[C@@H](CC(=O)O)C(=O)N[C@@H]1C(=O)NCC(=O)N[C@@H](CCCN)C(=O)NC(CC(=O)O)C(=O)N[C@H](C)C(=O)N[C@@H](CC(=O)O)C(=O)NCC(=O)N[C@H](CO)C(=O)N[C@@H]([C@@H](C)CC(=O)O)C(=O)N[C@@H](CC(=O)c2ccccc2N)C(=O)O[C@@H]1C` (single isomer, unassigned), for which the MIC in test [1] is 4 µg/mL (≈ 2.45 µM); in test [2], 2 µg/mL (≈ 1.22 µM); in test [3], 32 µg/mL (≈ 19.6 µM); in test [4], above 32 µg/mL.
`CC(C)CCCCCCCCCCC(=O)N[C@@H](Cc1c[nH]c2ccccc12)C(=O)N[C@@H](CC(N)=O)C(=O)N[C@@H](CC(=O)O)C(=O)N[C@@H]1C(=O)NCC(=O)N[C@@H](CCCN)C(=O)NC(CC(=O)O)C(=O)N[C@H](C)C(=O)N[C@@H](CC(=O)O)C(=O)NCC(=O)N[C@H](CO)C(=O)N[C@@H]([C@@H](C)CC(=O)O)C(=O)N[C@@H](CC(=O)c2ccccc2N)C(=O)O[C@@H]1C` (single isomer, unassigned): the MIC in test [1] stood at 1 µg/mL (≈ 0.596 µM); in test [2], 0.125 µg/mL (≈ 0.0745 µM); in test [3], 16 µg/mL (≈ 9.54 µM); in test [4], 4 µg/mL (≈ 2.39 µM).
With `CCCCCCOc1ccc(-c2csc(C(=O)N[C@@H](Cc3c[nH]c4ccccc34)C(=O)N[C@@H](CC(N)=O)C(=O)N[C@@H](CC(=O)O)C(=O)N[C@@H]3C(=O)NCC(=O)N[C@@H](CCCN)C(=O)NC(CC(=O)O)C(=O)N[C@H](C)C(=O)N[C@@H](CC(=O)O)C(=O)NCC(=O)N[C@H](CO)C(=O)N[C@@H]([C@@H](C)CC(=O)O)C(=O)N[C@@H](CC(=O)c4ccccc4N)C(=O)O[C@@H]3C)c2)cc1` (single isomer, unassigned), the MIC in test [1] worked out at 4 µg/mL (≈ 2.28 µM); in test [2] it was 0.5 µg/mL (≈ 0.285 µM); in test [3] it was 8 µg/mL (≈ 4.56 µM); in test [4] it was 2 µg/mL (≈ 1.14 µM).
As to `CCCCCCCCCCCCCC(=O)N[C@@H](Cc1c[nH]c2ccccc12)C(=O)N[C@@H](CC(N)=O)C(=O)N[C@@H](CC(=O)O)C(=O)N[C@@H]1C(=O)NCC(=O)N[C@@H](CCCN)C(=O)NC(CC(=O)O)C(=O)N[C@H](C)C(=O)N[C@@H](CC(=O)O)C(=O)NCC(=O)N[C@H](CO)C(=O)N[C@@H]([C@@H](C)CC(=O)O)C(=O)N[C@@H](CC(=O)c2ccccc2N)C(=O)O[C@@H]1C` (single isomer, unassigned), the MIC was 16 µg/mL (≈ 9.54 µM) in test [1], 1 µg/mL (≈ 0.596 µM) in test [2], 4 µg/mL (≈ 2.39 µM) in test [3] and 4 µg/mL (≈ 2.39 µM) in test [4].
For the compound `CCCCCCc1ccc(C(=O)N[C@@H](Cc2c[nH]c3ccccc23)C(=O)N[C@@H](CC(N)=O)C(=O)N[C@@H](CC(=O)O)C(=O)N[C@@H]2C(=O)NCC(=O)N[C@@H](CCCN)C(=O)N[C@H](CC(=O)O)C(=O)N[C@H](C)C(=O)N[C@@H](CC(=O)O)C(=O)NCC(=O)N[C@H](CO)C(=O)N[C@@H]([C@@H](C)CC(=O)O)C(=O)N[C@@H](CC(=O)c3ccccc3N)C(=O)O[C@@H]2C)cc1`, the MIC in test [1] is 4 µg/mL (≈ 2.42 µM); in test [2], 1 µg/mL (≈ 0.604 µM); in test [3] it was above 32 µg/mL; in test [4], 32 µg/mL (≈ 19.3 µM).
For `CCCCCCCCCCCCCCC(=O)N[C@@H](Cc1c[nH]c2ccccc12)C(=O)N[C@@H](CC(N)=O)C(=O)N[C@@H](CC(=O)O)C(=O)N[C@@H]1C(=O)NCC(=O)N[C@@H](CCCN)C(=O)NC(CC(=O)O)C(=O)N[C@H](C)C(=O)N[C@@H](CC(=O)O)C(=O)NCC(=O)N[C@H](CO)C(=O)N[C@@H]([C@@H](C)CC(=O)O)C(=O)N[C@@H](CC(=O)c2ccccc2N)C(=O)O[C@@H]1C` (single isomer, unassigned), the MIC in test [1] came out at 16 µg/mL (≈ 9.46 µM); in test [2] it was 1 µg/mL (≈ 0.591 µM); in test [3], 4 µg/mL (≈ 2.37 µM); in test [4] it was 4 µg/mL (≈ 2.37 µM).
In the case of `C[C@H]1NC(=O)C(CC(=O)O)NC(=O)[C@H](CCCN)NC(=O)CNC(=O)[C@@H](NC(=O)[C@H](CC(=O)O)NC(=O)[C@H](CC(N)=O)NC(=O)[C@H](Cc2c[nH]c3ccccc23)NC(=O)CCCCC2CCCCC2)[C@@H](C)OC(=O)[C@H](CC(=O)c2ccccc2N)NC(=O)[C@H]([C@@H](C)CC(=O)O)NC(=O)[C@@H](CO)NC(=O)CNC(=O)[C@H](CC(=O)O)NC1=O` (single isomer, unassigned), the MIC is 4 µg/mL (≈ 2.45 µM) in test [1], 1 µg/mL (≈ 0.612 µM) in test [2], above 32 µg/mL in test [3] and 32 µg/mL (≈ 19.6 µM) in test [4].
For the compound `CC(C)CCCCCCCCCC(=O)N[C@@H](Cc1c[nH]c2ccccc12)C(=O)N[C@@H](CC(N)=O)C(=O)N[C@@H](CC(=O)O)C(=O)N[C@@H]1C(=O)NCC(=O)N[C@@H](CCCN)C(=O)NC(CC(=O)O)C(=O)N[C@H](C)C(=O)N[C@@H](CC(=O)O)C(=O)NCC(=O)N[C@H](CO)C(=O)N[C@@H]([C@@H](C)CC(=O)O)C(=O)N[C@@H](CC(=O)c2ccccc2N)C(=O)O[C@@H]1C` (single isomer, unassigned), the MIC is 1 µg/mL (≈ 0.601 µM) in test [1], 0.25 µg/mL (≈ 0.15 µM) in test [2], above 32 µg/mL in test [3] and 4 µg/mL (≈ 2.41 µM) in test [4].
The matching figures for `CCCCCOc1ccc(/C=C/C(=O)N[C@@H](Cc2c[nH]c3ccccc23)C(=O)N[C@@H](CC(N)=O)C(=O)N[C@@H](CC(=O)O)C(=O)N[C@@H]2C(=O)NCC(=O)N[C@@H](CCCN)C(=O)NC(CC(=O)O)C(=O)N[C@H](C)C(=O)N[C@@H](CC(=O)O)C(=O)NCC(=O)N[C@H](CO)C(=O)N[C@@H]([C@@H](C)CC(=O)O)C(=O)N[C@@H](CC(=O)c3ccccc3N)C(=O)O[C@@H]2C)cc1` (single isomer, unassigned): 4 µg/mL (≈ 2.38 µM), 4 µg/mL (≈ 2.38 µM), above 32 µg/mL and above 32 µg/mL.
The like results for `CCCCCOc1ccc(-c2ccc(C(=O)N[C@@H](Cc3c[nH]c4ccccc34)C(=O)N[C@@H](CC(N)=O)C(=O)N[C@@H](CC(=O)O)C(=O)N[C@@H]3C(=O)NCC(=O)N[C@@H](CCCN)C(=O)N[C@H](CC(=O)O)C(=O)N[C@H](C)C(=O)N[C@@H](CC(=O)O)C(=O)NCC(=O)N[C@H](CO)C(=O)N[C@@H]([C@@H](C)CC(=O)O)C(=O)N[C@@H](CC(=O)c4ccccc4N)C(=O)O[C@@H]3C)cc2)cc1` were, in that order, 2 µg/mL (≈ 1.15 µM), 0.25 µg/mL (≈ 0.144 µM), 4 µg/mL (≈ 2.31 µM) and 2 µg/mL (≈ 1.15 µM).
The matching figures for `CCCCCCCCOc1ccc(-c2ccc(C(=O)N[C@@H](Cc3c[nH]c4ccccc34)C(=O)N[C@@H](CC(N)=O)C(=O)N[C@@H](CC(=O)O)C(=O)N[C@@H]3C(=O)NCC(=O)N[C@@H](CCCN)C(=O)N[C@H](CC(=O)O)C(=O)N[C@H](C)C(=O)N[C@@H](CC(=O)O)C(=O)NCC(=O)N[C@H](CO)C(=O)N[C@@H]([C@@H](C)CC(=O)O)C(=O)N[C@@H](CC(=O)c4ccccc4N)C(=O)O[C@@H]3C)cc2)cc1`: 1 µg/mL (≈ 0.563 µM), 0.125 µg/mL (≈ 0.0704 µM), 16 µg/mL (≈ 9.01 µM) and 4 µg/mL (≈ 2.25 µM).
As to `CCCOc1ccc(-c2ccc(C(=O)N[C@@H](Cc3c[nH]c4ccccc34)C(=O)N[C@@H](CC(N)=O)C(=O)N[C@@H](CC(=O)O)C(=O)N[C@@H]3C(=O)NCC(=O)N[C@@H](CCCN)C(=O)N[C@H](CC(=O)O)C(=O)N[C@H](C)C(=O)N[C@@H](CC(=O)O)C(=O)NCC(=O)N[C@H](CO)C(=O)N[C@@H]([C@@H](C)CC(=O)O)C(=O)N[C@@H](CC(=O)c4ccccc4N)C(=O)O[C@@H]3C)cc2)cc1`, the MIC in test [1] is 4 µg/mL (≈ 2.35 µM); in test [2] it was 0.5 µg/mL (≈ 0.293 µM); in test [3], above 32 µg/mL; in test [4], 32 µg/mL (≈ 18.8 µM).
The like results for `CCCCc1ccc(/C=C(\C)C(=O)N[C@@H](Cc2c[nH]c3ccccc23)C(=O)N[C@@H](CC(N)=O)C(=O)N[C@@H](CC(=O)O)C(=O)N[C@@H]2C(=O)NCC(=O)N[C@@H](CCCN)C(=O)NC(CC(=O)O)C(=O)N[C@H](C)C(=O)N[C@@H](CC(=O)O)C(=O)NCC(=O)N[C@H](CO)C(=O)N[C@@H]([C@@H](C)CC(=O)O)C(=O)N[C@@H](CC(=O)c3ccccc3N)C(=O)O[C@@H]2C)cc1` (single isomer, unassigned) were, in that order, 2 µg/mL (≈ 1.2 µM), 1 µg/mL (≈ 0.6 µM), above 32 µg/mL and 32 µg/mL (≈ 19.2 µM).
For `C[C@H]1NC(=O)C(CC(=O)O)NC(=O)[C@H](CCCN)NC(=O)CNC(=O)[C@@H](NC(=O)[C@H](CC(=O)O)NC(=O)[C@H](CC(N)=O)NC(=O)[C@H](Cc2c[nH]c3ccccc23)NC(=O)CCCCCCC2CCCCC2)[C@@H](C)OC(=O)[C@H](CC(=O)c2ccccc2N)NC(=O)[C@H]([C@@H](C)CC(=O)O)NC(=O)[C@@H](CO)NC(=O)CNC(=O)[C@H](CC(=O)O)NC1=O` (single isomer, unassigned), the MIC turned out to be 1 µg/mL (≈ 0.602 µM) in test [1], 0.5 µg/mL (≈ 0.301 µM) in test [2], 16 µg/mL (≈ 9.63 µM) in test [3] and 8 µg/mL (≈ 4.82 µM) in test [4].
